Measured values reported in ChEMBL document CHEMBL3885861, “Open TG-GATES”.

Species: Rattus norvegicus
Test: Open TG-GATES - Regimen: Daily Repeat
Format: toxicity, organism-based, Sprague-Dawley
Parameters: regimen Daily Repeat, gender Male, age 6 weeks
Details: in vivo, po, 0 mg/kg, route gavage, dose level Control; for APTT / Bas / Eos / Fbg / Hb / Ht / Lym / MCH / MCHC / MCV / Mono / Neu / PT / Plat / RBC / Ret / WBC: tissue Blood; for KIDNEY_L / KIDNEY_R / KIDNEY_TOTAL: tissue Kidney; for LIVER: tissue Liver; for A/G / ALP / ALT / AST / BUN / CRE / Ca / Cl / DBIL / GLC / IP / K / LDH / Na / PL / RALB / TBIL / TC / TG / TP / gamma-GTP: tissue Plasma

Compound `CCc1oc2ccccc2c1C(=O)c1cc(I)c(O)c(I)c1` [BENZIODARONE] has a TERMINAL_BW (72 h, time 3 day) of 239.1 g, an APTT (72 h, time 3 day) of 17.3 s and a Bas (72 h, time 3 day) of 0%. The Eos (72 h, time 3 day) was 0.8%, the Fbg (72 h, time 3 day) was 216.8 mg/dL and the Hb (72 h, time 3 day) was 14.1 g/dL. It also gave a Ht (72 h, time 3 day) of 41.9%, a Lym (72 h, time 3 day) of 76.2% and an MCH (72 h, time 3 day) of 21.4 pg. It also gave an MCHC (72 h, time 3 day) of 33.7%, an MCV (72 h, time 3 day) of 63.6 fL and a Mono (72 h, time 3 day) of 7%. The Neu (72 h, time 3 day) was 15.6%, the PT (72 h, time 3 day) was 11.7 s and the Plat (72 h, time 3 day) was 125.7 x10_4/uL. For the same compound, the RBC (72 h, time 3 day) was 658.4 x10_4/ul, the Ret (72 h, time 3 day) was 6.2% and the WBC (72 h, time 3 day) was 99.6 x10_2/uL. It also gave a KIDNEY_L (72 h, time 3 day) of 1.1 g, a KIDNEY_R (72 h, time 3 day) of 1.1 g and a KIDNEY_TOTAL (72 h, time 3 day) of 2.2 g. The LIVER (72 h, time 3 day) was 11.6 g, the A/G (72 h, time 3 day) was 1.8 and the ALP (72 h, time 3 day) was 882.4 IU/L. It also gave an ALT (72 h, time 3 day) of 39 IU/L, an AST (72 h, time 3 day) of 62.6 IU/L and a BUN (72 h, time 3 day) of 17.4 mg/dL. It also gave a CRE (72 h, time 3 day) of 0.5 mg/dL, a Ca (72 h, time 3 day) of 10.7 mg/dL and a Cl (72 h, time 3 day) of 104.6 meq/L. It also gave a DBIL (72 h, time 3 day) of 0.014 mg/dL, a GLC (72 h, time 3 day) of 203.2 mg/dL and an IP (72 h, time 3 day) of 7.2 mg/dL. The K (72 h, time 3 day) was 4.7 meq/L, the LDH (72 h, time 3 day) was 79.6 IU/L and the Na (72 h, time 3 day) was 141 meq/L. It also gave a PL (72 h, time 3 day) of 147.4 mg/dL, an RALB (72 h, time 3 day) of 3.7 g/dL and a TBIL (72 h, time 3 day) of 0.3 mg/dL. It also gave a TC (72 h, time 3 day) of 75.4 mg/dL, a TG (72 h, time 3 day) of 103.6 mg/dL and a TP (72 h, time 3 day) of 5.7 g/dL. It also gave a gamma-GTP (72 h, time 3 day) of 1.2 IU/L, a TERMINAL_BW ([…], time 7 day) of 272.7 g and a TERMINAL_BW ([…], time 14 day) of 335.3 g. For the same compound, the TERMINAL_BW ([…], time 28 day) was 397 g, the APTT ([…], time 7 day) was 16.8 s and the Bas ([…], time 7 day) was 0%. It also gave an Eos ([…], time 7 day) of 1%, a Fbg ([…], time 7 day) of 220 mg/dL and a Hb ([…], time 7 day) of 14.2 g/dL. For the same compound, the Ht ([…], time 7 day) was 41.6%, the Lym ([…], time 7 day) was 77.8% and the MCH ([…], time 7 day) was 21.4 pg. The MCHC ([…], time 7 day) was 34.1%, the MCV ([…], time 7 day) was 62.8 fL and the Mono ([…], time 7 day) was 7.2%. It also gave a Neu ([…], time 7 day) of 14.2%, a PT ([…], time 7 day) of 11.5 s and a Plat ([…], time 7 day) of 125.2 x10_4/uL. The RBC ([…], time 7 day) was 662.2 x10_4/ul, the Ret ([…], time 7 day) was 4.5% and the WBC ([…], time 7 day) was 108.6 x10_2/uL. The APTT ([…], time 14 day) was 17.1 s, the Bas ([…], time 14 day) was 0% and the Eos ([…], time 14 day) was 1%. It also gave a Fbg ([…], time 14 day) of 220.6 mg/dL, a Hb ([…], time 14 day) of 14.2 g/dL and a Ht ([…], time 14 day) of 41.9%. For the same compound, the Lym ([…], time 14 day) was 80.8%, the MCH ([…], time 14 day) was 20.9 pg and the MCHC ([…], time 14 day) was 34%. It also gave an MCV ([…], time 14 day) of 61.5 fL, a Mono ([…], time 14 day) of 6% and a Neu ([…], time 14 day) of 12.6%. For the same compound, the PT ([…], time 14 day) was 11.5 s, the Plat ([…], time 14 day) was 115.3 x10_4/uL and the RBC ([…], time 14 day) was 683.2 x10_4/ul. It also gave a Ret ([…], time 14 day) of 3.1%, a WBC ([…], time 14 day) of 110 x10_2/uL and an APTT ([…], time 28 day) of 17.9 s. The Bas ([…], time 28 day) was 0%, the Eos ([…], time 28 day) was 1.6% and the Fbg ([…], time 28 day) was 215.8 mg/dL. It also gave a Hb ([…], time 28 day) of 15.8 g/dL, a Ht ([…], time 28 day) of 46.8% and a Lym ([…], time 28 day) of 80%. It also gave an MCH ([…], time 28 day) of 19.5 pg, an MCHC ([…], time 28 day) of 33.7% and an MCV ([…], time 28 day) of 57.7 fL. For the same compound, the Mono ([…], time 28 day) was 5.4%, the Neu ([…], time 28 day) was 13.4% and the PT ([…], time 28 day) was 11.9 s. It also gave a Plat ([…], time 28 day) of 117.3 x10_4/uL, an RBC ([…], time 28 day) of 812.6 x10_4/ul and a Ret ([…], time 28 day) of 3.1%. For the same compound, the WBC ([…], time 28 day) was 150.6 x10_2/uL, the KIDNEY_L ([…], time 7 day) was 1.1 g and the KIDNEY_R ([…], time 7 day) was 1.2 g. The KIDNEY_TOTAL ([…], time 7 day) was 2.3 g, the KIDNEY_L ([…], time 14 day) was 1.3 g and the KIDNEY_R ([…], time 14 day) was 1.3 g. It also gave a KIDNEY_TOTAL ([…], time 14 day) of 2.6 g, a KIDNEY_L ([…], time 28 day) of 1.4 g and a KIDNEY_R ([…], time 28 day) of 1.4 g. The KIDNEY_TOTAL ([…], time 28 day) was 2.9 g, the LIVER ([…], time 7 day) was 12.8 g and the LIVER ([…], time 14 day) was 15.1 g. For the same compound, the LIVER ([…], time 28 day) was 15.6 g, the A/G ([…], time 7 day) was 1.7 and the ALP ([…], time 7 day) was 916.8 IU/L. The ALT ([…], time 7 day) was 36 IU/L, the AST ([…], time 7 day) was 62.8 IU/L and the BUN ([…], time 7 day) was 19.2 mg/dL. It also gave a CRE ([…], time 7 day) of 0.5 mg/dL, a Ca ([…], time 7 day) of 10.6 mg/dL and a Cl ([…], time 7 day) of 104.6 meq/L. The DBIL ([…], time 7 day) was 0.048 mg/dL, the GLC ([…], time 7 day) was 192 mg/dL and the IP ([…], time 7 day) was 6.9 mg/dL. It also gave a K ([…], time 7 day) of 4.9 meq/L, an LDH ([…], time 7 day) of 86 IU/L and a Na ([…], time 7 day) of 139.6 meq/L. It also gave a PL ([…], time 7 day) of 141.8 mg/dL, an RALB ([…], time 7 day) of 3.6 g/dL and a TBIL ([…], time 7 day) of 0.3 mg/dL. It also gave a TC ([…], time 7 day) of 65 mg/dL, a TG ([…], time 7 day) of 114.2 mg/dL and a TP ([…], time 7 day) of 5.7 g/dL. The gamma-GTP ([…], time 7 day) was 1.8 IU/L, the A/G ([…], time 14 day) was 1.6 and the ALP ([…], time 14 day) was 789.8 IU/L. For the same compound, the ALT ([…], time 14 day) was 32.2 IU/L, the AST ([…], time 14 day) was 63.2 IU/L and the BUN ([…], time 14 day) was 19.6 mg/dL. The CRE ([…], time 14 day) was 0.5 mg/dL, the Ca ([…], time 14 day) was 10.5 mg/dL and the Cl ([…], time 14 day) was 104.4 meq/L. The DBIL ([…], time 14 day) was 0 mg/dL, the GLC ([…], time 14 day) was 201 mg/dL and the IP ([…], time 14 day) was 6.7 mg/dL. It also gave a K ([…], time 14 day) of 4.9 meq/L, an LDH ([…], time 14 day) of 97.2 IU/L and a Na ([…], time 14 day) of 140.6 meq/L. For the same compound, the PL ([…], time 14 day) was 149 mg/dL, the RALB ([…], time 14 day) was 3.7 g/dL and the TBIL ([…], time 14 day) was 0.3 mg/dL. The TC ([…], time 14 day) was 72.4 mg/dL, the TG ([…], time 14 day) was 152 mg/dL and the TP ([…], time 14 day) was 6 g/dL. The gamma-GTP ([…], time 14 day) was 2 IU/L, the A/G ([…], time 28 day) was 1.5 and the ALP ([…], time 28 day) was 606.6 IU/L. For the same compound, the ALT ([…], time 28 day) was 27 IU/L, the AST ([…], time 28 day) was 57 IU/L and the BUN ([…], time 28 day) was 19.8 mg/dL. The CRE ([…], time 28 day) was 0.6 mg/dL, the Ca ([…], time 28 day) was 10.6 mg/dL and the Cl ([…], time 28 day) was 105.6 meq/L. It also gave a DBIL ([…], time 28 day) of 0.04 mg/dL, a GLC ([…], time 28 day) of 200 mg/dL and an IP ([…], time 28 day) of 5.7 mg/dL. It also gave a K ([…], time 28 day) of 4.5 meq/L, an LDH ([…], time 28 day) of 79 IU/L and a Na ([…], time 28 day) of 140 meq/L. For the same compound, the PL ([…], time 28 day) was 135 mg/dL, the RALB ([…], time 28 day) was 3.7 g/dL and the TBIL ([…], time 28 day) was 0.3 mg/dL. It also gave a TC ([…], time 28 day) of 58 mg/dL, a TG ([…], time 28 day) of 164.8 mg/dL and a TP ([…], time 28 day) of 6.2 g/dL. The gamma-GTP ([…], time 28 day) was 2.2 IU/L.
